EP4227307A1 (Genzyme Corporation, priority 2022, dated 2023)
Counter-ions that a name gives are not always drawn.

Target: T1, human recombinant 6His-Nterm SHP2 full-length (Thr2-Arg593) (Homo sapiens, UniProt Q06124)
T1 construct: 6His-Nterm SHP2 full-length (Thr2-Arg593, R&D system); 6His (N); purchased R&D system
T1 sequence (Q06124 2-593): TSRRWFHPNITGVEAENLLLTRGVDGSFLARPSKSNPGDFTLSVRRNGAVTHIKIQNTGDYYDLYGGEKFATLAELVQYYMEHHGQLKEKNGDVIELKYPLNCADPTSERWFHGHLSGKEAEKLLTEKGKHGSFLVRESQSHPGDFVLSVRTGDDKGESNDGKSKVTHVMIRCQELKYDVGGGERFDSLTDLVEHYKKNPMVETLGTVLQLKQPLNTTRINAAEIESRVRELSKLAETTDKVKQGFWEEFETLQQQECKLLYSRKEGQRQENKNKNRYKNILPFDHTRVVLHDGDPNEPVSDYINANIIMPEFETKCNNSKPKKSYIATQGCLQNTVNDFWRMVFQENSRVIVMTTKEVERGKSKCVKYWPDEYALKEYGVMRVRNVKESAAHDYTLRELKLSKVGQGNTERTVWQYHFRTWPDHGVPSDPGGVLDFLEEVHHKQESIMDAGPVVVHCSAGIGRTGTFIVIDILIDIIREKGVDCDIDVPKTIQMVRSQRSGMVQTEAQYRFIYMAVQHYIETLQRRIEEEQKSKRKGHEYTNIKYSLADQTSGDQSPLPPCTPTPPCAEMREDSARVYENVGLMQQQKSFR
Assay: SHP2 Phosphatase Assay (DiFMUP fluorescence)
Type: biochemical
Details: SHP2 0.2 nM pre-incubated with 100 nM bi-phosphorylated activating peptide; compound 1000-0.05 nM, 30 min pre-incubation; DiFMUP 20 µM, 45 min, room temperature; 10-concentration dose-response
Method in brief: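 SHP2 (0.2 nM) preactivated ≥10 min with 100 nM bis-phosphorylated peptide, then 30 min with compound (10 concentrations, 1000–0.05 nM) at room temperature, pH 7.2 HEPES buffer with DTT. DiFMUP (20 µM, added solution) reacted 45 min, pervanadate-stopped; fluorescence 350/450 nm. IC50 by 4-parameter logistic fit.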

Q: For Cc1nc(N2CCC3(CC2)Cc2c(F)cccc2[C@H]3N)c2ccnn2c1-c1cccc(F)c1F [Compound 94, (1S)-1'-[7-(2,3-difluorophenyl)-6-methyl-pyrazolo[1,5-a]pyrazin-4-yl]-4-fluoro-spiro[indane-2,4'-piperidine]-1-amine formate], which IC50 is on record?
A: 146 nM

Q: With Cc1nc(N2CCC3(CC2)Cc2c(F)cccc2[C@H]3N)c2ccnn2c1-c1cnn(C)c1C [Compound 95, (1S)-1'-[7-(1,5-dimethylpyrazol-4-yl)-6-methyl-pyrazolo[1,5-a]pyrazin-4-yl]-4-fluoro-spiro[indane-2,4'-piperidine]-1-amine formate] as the compound, how does the IC50 read?
A: 19 nM

Q: Which IC50 does the source give for Cc1nc(N2CCC3(CC2)Cc2c(F)cccc2[C@H]3N)c2ccnn2c1-c1cnn2ccccc12 [Compound 96, (1S)-4-fluoro-1'-(6-methyl-7-pyrazolo[1,5-a]pyridin-3-yl-pyrazolo[1,5-a]pyrazin-4-yl)spiro[indane-2,4'-piperidine]-1-amine formate] here?
A: 11 nM

Q: How did the IC50 turn out when Cc1nc(N2CCC3(CC2)Cc2c(F)cccc2[C@H]3N)c2ccnn2c1-c1cnc(C)n1C [Compound 97, (1S)-1'-[7-(2,3-dimethylimidazol-4-yl)-6-methyl-pyrazolo[1,5-a]pyrazin-4-yl]-4-fluoro-spiro[indane-2,4'-piperidine]-1-amine hydrochloride] was run?
A: 42 nM

Q: For Cc1cnccc1-c1c(C)nc(N2CCC3(CC2)Cc2ncccc2[C@H]3N)c2ccnn12 [Compound 98, (5S)-1'-[6-methyl-7-(3-methyl-4-pyridyl)pyrazolo[1,5-a]pyrazin-4-yl]spiro [5,7-dihydrocyclopenta[b]pyridine-6,4'-piperidine] -5-amine formate], which IC50 is on record?
A: 145 nM

Q: How did the IC50 turn out when Cc1nc(N2CCC3(CC2)Cc2ncccc2[C@H]3N)c2ccnn2c1-c1cccs1 [Compound 99, (5S)-1'-[6-methyl-7-(2-thienyl)pyrazolo[1,5-a]pyrazin-4-yl]spiro [5,7-dihydrocyclopenta[b]pyridine-6,4'-piperidine]-5-amine hydrochloride] was run?
A: 9 nM

Q: With Cc1nc(N2CCC3(CC2)Cc2ncccc2[C@H]3N)c2ccnn2c1-c1ccncc1Cl [Compound 100, (5S)-1'-[7-(3-chloro-4-pyridyl)-6-methyl-pyrazolo[1,5-a]pyrazin-4-yl]spiro[5,7-dihydrocyclopenta[b]pyridine-6,4'-piperidine]-5-amine hydrochloride] as the compound, how does the IC50 read?
A: 13 nM

Q: For Cc1nc(N2CCC3(CC2)Cc2cc(F)ccc2[C@H]3N)c2ccnn2c1-c1cnn(C)c1C [Compound 101, (1S)-1'-[7-(1,5-dimethylpyrazol-4-yl)-6-methyl-pyrazolo[1,5-a]pyrazin-4-yl]-5-fluoro-spiro[indane-2,4'-piperidine]-1-amine hydrochloride], which IC50 is on record?
A: 15 nM

Q: Cc1nc(N2CCC3(CC2)Cc2c(F)cc(F)cc2[C@H]3N)c2ccnn2c1-c1cnn(C)c1C [Compound 102, (1S)-1'-[7-(1,5-dimethylpyrazol-4-yl)-6-methyl-pyrazolo[1,5-a]pyrazin-4-yl]-4,6-difluoro-spiro[indane-2,4'-piperidine]-1-amine hydrochloride] was tested. Which IC50 did it give?
A: 17 nM

Q: Which IC50 does the source give for Cc1nc(N2CCC3(CC2)Cc2ccc(F)cc2[C@H]3N)c2ccnn2c1-c1cnn(C)c1C [Compound 103, (1S)-1'-[7-(1,5-dimethylpyrazol-4-yl)-6-methyl-pyrazolo[1,5-a]pyrazin-4-yl]-6-fluoro-spiro [indane-2,4'-piperidine]-1-amine hydrochloride] here?
A: 12 nM

Q: Which IC50 does the source give for Cc1nc2c(s1)CC1(CCN(c3nc(C)c(-c4ccccc4F)n4nccc34)CC1)[C@@H]2N [Compound 104, (4S)-1'-[7-(2-fluorophenyl)-6-methyl-pyrazolo[1,5-a]pyrazin-4-yl]-2-methyl-spiro[4,6-dihydrocyclopenta[d]thiazole-5,4'-piperidine]-4-amine hydrochloride] here?
A: 9 nM

Q: How did the IC50 turn out when Cc1nc2c(s1)CC1(CCN(c3nc(C)c(-c4ccnc(C)c4Cl)n4nccc34)CC1)[C@@H]2N [Compound 105, (4S)-1'-[7-(3-chloro-2-methyl-4-pyridyl)-6-methyl-pyrazolo[1,5-a]pyrazin-4-yl]-2-methyl-spiro[4,6-dihydrocyclopenta[d]thiazole-5,4'-piperidine]-4-amine hydrochloride] was run?
A: 6 nM

Q: Cc1ccc2c(n1)CC1(CCN(c3nc(C)c(-c4ccccc4F)n4nccc34)CC1)[C@@H]2N [Compound 106, (5S)-1'-[7-(2-fluorophenyl)-6-methyl-pyrazolo[1,5-a]pyrazin-4-yl]-2-methyl-spiro[5,7-dihydrocyclopenta[b]pyridine-6,4'-piperidine]-5-amine hydrochloride] was tested. Which IC50 did it give?
A: 14 nM

Q: Which IC50 does the source give for Cc1ccc2c(n1)CC1(CCN(c3nc(C)c(-c4ccccc4)n4nccc34)CC1)[C@@H]2N [Compound 107, (5 S)-2-methyl-1'-(6-methyl-7-phenyl-pyrazolo[1,5-a]pyrazin-4-yl)spiro[5,7-dihydrocyclopenta[b]pyridine-6,4'-piperidine]-5-amine hydrochloride] here?
A: 12 nM

Q: Which IC50 does the source give for COc1nccc(-c2c(C)nc(N3CCC4(CC3)Cc3ncccc3[C@H]4N)c3ccnn23)c1Cl [Compound 108, (5S)-1'-[7-(3-chloro-2-methoxy-4-pyridyl)-6-methyl-pyrazolo[1,5-a]pyrazin-4-yl]spiro[5,7-dihydrocyclopenta[b]pyridine-6,4'-piperidine]-5-amine] here?
A: 6 nM

Q: For COc1cccc2c1CC1(CCN(c3nc(C)c(-c4ccccc4F)n4nccc34)CC1)[C@@H]2N [Compound 109, (1S)-1'-[7-(2-fluorophenyl)-6-methyl-pyrazolo[1,5-a]pyrazin-4-yl] -4-methoxy-spiro[indane-2,4'-piperidine]-1-amine], which IC50 is on record?
A: 10 nM

Q: With COc1cccc2c1CC1(CCN(c3nc(C)c(-c4ccnc(C)c4Cl)n4nccc34)CC1)[C@@H]2N [Compound 110, (1S)-1'-[7-(3-chloro-2-methyl-4-pyridyl)-6-methyl-pyrazolo[1,5-a]pyrazin-4-yl]-4-methoxy-spiro[indane-2,4'-piperidine]-1-amine] as the compound, how does the IC50 read?
A: 11 nM

Q: Which IC50 does the source give for COc1cccc2c1CC1(CCN(c3nc(C)c(-c4cnn(C)c4C)n4nccc34)CC1)[C@@H]2N [Compound 111, (1S)-1-[7-(1,5-dimethylpyrazol-4-yl)-6-methyl-pyrazolo[1,5-a]pyrazin-4-yl] -4-methoxy-spiro[indane-2,4'-piperidine]-1-amine] here?
A: 16 nM

Q: With Cc1cc2c(cn1)CC1(CCN(c3nc(C)c(-c4ccnc(C)c4Cl)n4nccc34)CC1)[C@@H]2N [Compound 112, (5S)-1'-[7-(3-chloro-2-methyl-4-pyridyl)-6-methyl-pyrazolo[1,5-a]pyrazin-4-yl]-3-methyl-spiro[5,7-dihydrocyclopenta[c]pyridine-6,4'-piperidine]-5-amine hydrochloride] as the compound, how does the IC50 read?
A: 5 nM

Q: Which IC50 does the source give for Cc1cc2c(cn1)CC1(CCN(c3nc(C)c(-c4ccccc4)n4nccc34)CC1)[C@@H]2N [Compound 114, (5S)-3-methyl-1'-(6-methyl-7-phenyl-pyrazolo[1,5-a]pyrazin-4-yl)spiro[5,7-dihydrocyclopenta[c]pyridine-6,4'-piperidine]-5-amine hydrochloride] here?
A: 10 nM

Q: Which IC50 does the source give for Cc1nc(N2CCC3(CC2)Cc2ncccc2[C@H]3N)c2ccnn2c1-c1c(F)cccc1F [Compound 115, (5S)-1'-[7-(2,6-difluorophenyl)-6-methyl-pyrazolo[1,5-a]pyrazin-4-yl]spiro[5,7-dihydrocyclopenta[b]pyridine-6,4'-piperidine]-5-amine] here?
A: 11 nM

Q: For Cc1cc2c(cn1)CC1(CCN(c3nc(C)c(-c4ccnc(C)c4F)n4nccc34)CC1)[C@@H]2N [Compound 116, (5S)-1'-[7-(3-fluoro-2-methyl-4-pyridyl)-6-methyl-pyrazolo[1,5-a]pyrazin-4-yl]-3-methyl-spiro[5,7-dihydrocyclopenta[c]pyridine-6,4'-piperidine]-5-amine], which IC50 is on record?
A: 8 nM

Q: How did the IC50 turn out when Cc1cc2c(cn1)CC1(CCN(c3nc(C)c(-c4cccc(C#N)c4F)n4nccc34)CC1)[C@@H]2N [Compound 117, 3-[4-[(5S)-5-amino-3-methyl-spiro[5,7-dihydrocyclopenta[c]pyridine-6,4'-piperidine]-1'-yl]-6-methyl-pyrazolo[1,5-a]pyrazin-7-yl]-2-fluoro-benzonitrile hydrochloride] was run?
A: 10 nM

Q: With COc1ccc2c(c1)[C@@H](N)C1(CCN(c3nc(C)c(-c4ccnc(C)c4F)n4nccc34)CC1)C2 [Compound 118, (1S)-1'-[7-(3-fluoro-2-methyl-4-pyridyl)-6-methyl-pyrazolo[1,5-a]pyrazin-4-yl]-6-methoxy-spiro [indane-2,4'-piperidine]-1-amine hydrochloride] as the compound, how does the IC50 read?
A: 4 nM

Q: For COc1ccc2c(c1)[C@@H](N)C1(CCN(c3nc(C)c(-c4ccncc4Cl)n4nccc34)CC1)C2 [Compound 119, hydrochloride], which IC50 is on record?
A: 4 nM
